Data as given in US20160355530A1, “HEPATITIS C INHIBITORS AND USES THEREOF” (AbbVie Inc., priority 2010, published 2016).
Like-named read-outs stand apart in the source and are kept apart here.

Experiments:
[1] = tested on: chimeric replicon with genotype 4a NS5B; assay: microbe, parasite or virus in culture; format: cell-based, HCV genotype 4a; conditions: Hepatitis C virus, read-out: 4a chimera 5% FBS EC50
[2] = tested on: HCV 1b-BB7 subgenomic replicon; assay: microbe, parasite or virus in culture; format: cell-based, HCV genotype 1b; conditions: Hepatitis C virus, stable replicon
[3] = tested on: chimeric replicon with genotype 2b NS5B; assay: microbe, parasite or virus in culture; format: cell-based, HCV genotype 2b; conditions: Hepatitis C virus, read-out: 2b chimera 5% FBS EC50
[4] = tested on: chimeric replicon with genotype 3a NS5B; assay: microbe, parasite or virus in culture; format: cell-based, HCV genotype 3a; conditions: Hepatitis C virus, read-out: 3a chimera 5% FBS EC50
[5] = target: T1, HCV NS5B polymerase 1a-H77 (Hepatitis C virus genotype 1a, UniProt P27958); assay: biochemical; design: species or system HCV genotype 1a; conditions: enzyme, strain 1a H77; read-out: HCV Polymerase Strain 1a H77 IC50
T1 construct: six-histidine tag; made in house; host or cells: E. coli
T1 sequence (P27958 2421-2990): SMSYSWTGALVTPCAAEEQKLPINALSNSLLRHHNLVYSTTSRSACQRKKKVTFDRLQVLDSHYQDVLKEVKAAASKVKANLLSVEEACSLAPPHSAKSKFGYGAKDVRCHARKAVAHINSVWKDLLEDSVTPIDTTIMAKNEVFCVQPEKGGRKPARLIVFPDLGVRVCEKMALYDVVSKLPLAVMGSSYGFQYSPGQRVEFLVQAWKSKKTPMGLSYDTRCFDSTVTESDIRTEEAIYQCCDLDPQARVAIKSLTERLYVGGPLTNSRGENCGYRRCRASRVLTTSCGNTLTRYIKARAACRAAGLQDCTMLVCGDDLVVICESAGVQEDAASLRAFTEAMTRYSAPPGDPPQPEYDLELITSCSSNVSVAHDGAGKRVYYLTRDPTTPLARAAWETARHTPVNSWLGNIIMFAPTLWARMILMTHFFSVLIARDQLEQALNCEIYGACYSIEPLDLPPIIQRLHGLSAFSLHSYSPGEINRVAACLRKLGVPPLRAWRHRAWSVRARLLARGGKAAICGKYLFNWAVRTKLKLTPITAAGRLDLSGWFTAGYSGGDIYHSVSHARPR
Procedure, shortened: (§1)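 Incorporation of [3H]UTP (0.284 μM), alongside 20 μM each CTP and ATP, into RNA copied from a 5 nM 2.1 kb genotype 1b negative-strand template was measured after 3 h at 30° C using purified His-tagged NS5B truncated at residue 570. Product was spermine-precipitated, filtered and scintillation-counted; nonlinear regression gave IC50.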

[6] = tested on: HCV NS5B polymerase 1a-H77-C316Y; assay: biochemical; design: species or system HCV genotype 1a; conditions: ratio of enzyme IC50s, 1a H77-C316Y / 1a H77
Procedure, shortened: as §1

[7] = target: T2, HCV NS5B polymerase 1a-H77-C316Y (Hepatitis C virus genotype 1a, UniProt P27958, C2736Y); assay: biochemical; design: species or system HCV genotype 1a
T2 construct: six-histidine tag; made in house; host or cells: E. coli
T2 sequence (P27958 2421-2990 C2736Y): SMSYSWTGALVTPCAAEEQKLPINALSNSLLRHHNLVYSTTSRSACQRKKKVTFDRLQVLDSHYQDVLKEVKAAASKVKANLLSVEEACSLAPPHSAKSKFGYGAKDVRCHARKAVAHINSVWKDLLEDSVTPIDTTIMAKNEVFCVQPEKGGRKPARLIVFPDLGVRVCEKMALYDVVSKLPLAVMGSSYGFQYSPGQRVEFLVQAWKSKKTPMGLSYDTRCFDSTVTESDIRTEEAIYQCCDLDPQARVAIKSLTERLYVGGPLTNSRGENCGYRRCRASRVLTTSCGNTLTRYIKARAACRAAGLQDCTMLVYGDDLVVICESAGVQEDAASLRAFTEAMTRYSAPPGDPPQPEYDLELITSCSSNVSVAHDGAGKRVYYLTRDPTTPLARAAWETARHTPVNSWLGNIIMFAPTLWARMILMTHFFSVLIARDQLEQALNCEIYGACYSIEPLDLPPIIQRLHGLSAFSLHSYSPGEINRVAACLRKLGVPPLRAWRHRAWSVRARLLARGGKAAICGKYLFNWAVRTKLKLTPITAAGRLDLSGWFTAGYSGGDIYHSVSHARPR
Procedure, shortened: as §1

[8] = tested on: chimeric replicon with 2a-J6CF-derived NS5B; assay: microbe, parasite or virus in culture; format: cell-based, HCV genotype 2a; conditions: Hepatitis C virus, read-out: 2a chimera 5% FBS EC50
[9] = target: T3, HCV NS5B polymerase 1b BK strain (Hepatitis C virus genotype 1b, UniProt P26663); assay: HCV NS5B polymerase enzymatic inhibition assay, strain 1b BK; format: biochemical; conditions: enzyme, strain 1b BK; read-out: HCV Polymerase Strain 1b BK IC50
T3 construct: six-histidine tag; made in house; host or cells: E. coli
T3 sequence (P26663 2420-2989): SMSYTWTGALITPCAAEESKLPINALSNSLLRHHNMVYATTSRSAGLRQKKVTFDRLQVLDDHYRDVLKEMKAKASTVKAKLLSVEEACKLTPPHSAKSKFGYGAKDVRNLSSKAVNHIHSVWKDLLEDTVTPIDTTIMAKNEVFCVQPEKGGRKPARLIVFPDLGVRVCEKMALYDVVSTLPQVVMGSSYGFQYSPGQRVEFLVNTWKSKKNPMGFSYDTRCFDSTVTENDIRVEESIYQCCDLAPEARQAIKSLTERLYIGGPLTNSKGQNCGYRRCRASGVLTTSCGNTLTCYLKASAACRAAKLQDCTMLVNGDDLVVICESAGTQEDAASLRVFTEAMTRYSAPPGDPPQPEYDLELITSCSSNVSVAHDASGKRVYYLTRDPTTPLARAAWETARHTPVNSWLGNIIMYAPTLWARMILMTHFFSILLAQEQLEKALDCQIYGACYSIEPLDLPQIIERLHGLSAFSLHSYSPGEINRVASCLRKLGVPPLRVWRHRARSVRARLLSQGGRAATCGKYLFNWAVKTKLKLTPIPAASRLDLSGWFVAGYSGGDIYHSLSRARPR
Procedure, shortened: as §1

[10] = tested on: HCV 1a-H77 subgenomic replicon; assay: microbe, parasite or virus in culture; format: cell-based, HCV genotype 1a; conditions: Hepatitis C virus, stable replicon
[11] = strain 1b BB7, 5% FBS + 40% human plasma, read-out: 1b BB7 5% FBS + 40% Human Plasma EC50
[12] = strain 1b BB7, 5% FBS, no human plasma, read-out: 1b BB7 5% FBS EC50
[13] = strain 1b BB7, 5% FBS, read-out: 1b BB7 5% FBS EC50
[14] = 5% FBS, absence of human plasma, read-out: Stable Replicon 1a H77 5% FBS EC50
[15] = strain 1a H77, 5% FBS + 40% human plasma, read-out: 1a H77 5% FBS + 40% Human Plasma EC50
[16] = strain 1a H77, 5% FBS, no human plasma, read-out: 1a H77 5% FBS EC50
[17] = strain 1a H77, 5% FBS, read-out: 1a H77 5% FBS EC50

SMILES: CS(=O)(=O)N(Cc1cnc(-c2ccc3[nH]ccc3c2)s1)c1ccc2c(-c3ncc[nH]3)c(-c3ccccc3)oc2c1 [Example 23, N-[3-(1H-imidazol-2-yl)-2-phenyl-1-benzofuran-6-yl]-N-{[2-(1H-indol-5-yl)-1,3-thiazol-5-yl]methyl}methanesulfonamide]
- EC50 [1]: 313 nM
- EC50 [2, 11]: 9240 nM
- EC50 [2, 12]: 26.4 nM
- EC50 [2, 13]: 26.4 nM
- EC50 [3]: 281 nM
- EC50 [4]: 17.3 nM
- IC50 [5]: 3.9 nM
- C316Y/1a Fold Resistance [6]: 7 fold
- IC50 [7]: 27 nM
- EC50 [8]: 41.6 nM
- IC50 [9]: 10 nM
- EC50 [10, 14]: 230 nM
- EC50 [10, 15]: 10000 nM
- EC50 [10, 16]: 230 nM
- EC50 [10, 17]: 230 nM

SMILES: C[S+]([O-])c1ccc(-c2ncc(CN(c3ccc4c(-c5ncc[nH]5)c(-c5ccccc5)oc4c3)S(C)(=O)=O)s2)cc1 (stereo not drawn) [Example 24, N-[3-(1H-imidazol-2-yl)-2-phenyl-1-benzofuran-6-yl]-N-({2-[4-(methylsulfinyl)phenyl]-1,3-thiazol-5-yl}methyl)methanesulfonamide]
- EC50 [1]: 362 nM
- EC50 [2, 11]: 3850 nM
- EC50 [2, 12]: 12.4 nM
- EC50 [2, 13]: 12.4 nM
- EC50 [3]: 193 nM
- EC50 [4]: 5.4 nM
- IC50 [5]: 6.9 nM
- C316Y/1a Fold Resistance [6]: 5 fold
- IC50 [7]: 36 nM
- EC50 [8]: 206 nM
- IC50 [9]: 18 nM
- EC50 [10, 14]: 157 nM
- EC50 [10, 15]: 10000 nM
- EC50 [10, 16]: 157 nM
- EC50 [10, 17]: 157 nM

SMILES: Cn1ccc2cc(-c3ncc(CN(c4ccc5c(-c6ncc[nH]6)c(-c6ccccc6)oc5c4)S(C)(=O)=O)s3)ccc21 [Example 25, N-[3-(1H-imidazol-2-yl)-2-phenyl-1-benzofuran-6-yl]-N-{[2-(1-methyl-1H-indol-5-yl)-1,3-thiazol-5-yl]methyl}methanesulfonamide]
- EC50 [1]: 452 nM
- EC50 [2, 11]: 10000 nM
- EC50 [2, 12]: 8.2 nM
- EC50 [2, 13]: 8.2 nM
- EC50 [3]: 382 nM
- EC50 [4]: 10.7 nM
- IC50 [5]: 6.3 nM
- C316Y/1a Fold Resistance [6]: 7 fold
- IC50 [7]: 43 nM
- EC50 [8]: 108 nM
- IC50 [9]: 15 nM
- EC50 [10, 14]: 266 nM
- EC50 [10, 15]: 10000 nM
- EC50 [10, 16]: 266 nM
- EC50 [10, 17]: 266 nM

SMILES: Cn1cc(-c2ncc(CN(c3ccc4c(-c5ncc[nH]5)c(-c5ccccc5)oc4c3)S(C)(=O)=O)s2)cn1 [Example 26, N-[3-(1H-imidazol-2-yl)-2-phenyl-1-benzofuran-6-yl]-N-{[2-(1-methyl-1H-pyrazol-4-yl)-1,3-thiazol-5-yl]methyl}methanesulfonamide]
- EC50 [1]: 377 nM
- EC50 [2, 11]: 5450 nM
- EC50 [2, 12]: 15 nM
- EC50 [2, 13]: 15 nM
- EC50 [3]: 497 nM
- EC50 [4]: 5.2 nM
- IC50 [5]: 12 nM
- C316Y/1a Fold Resistance [6]: 3 fold
- IC50 [7]: 30 nM
- EC50 [8]: 277 nM
- IC50 [9]: 10 nM
- EC50 [10, 14]: 343 nM
- EC50 [10, 15]: 10000 nM
- EC50 [10, 16]: 343 nM
- EC50 [10, 17]: 343 nM

SMILES: CS(=O)(=O)N(Cc1cnc(-c2cccc(CO)c2)s1)c1ccc2c(-c3ncc[nH]3)c(-c3ccccc3)oc2c1 [Example 28, N-({2-[3-(hydroxymethyl)phenyl]-1,3-thiazol-5-yl}methyl)-N-[3-(1H-imidazol-2-yl)-2-phenyl-1-benzofuran-6-yl]methanesulfonamide]
- EC50 [1]: 378 nM
- EC50 [2, 11]: 10000 nM
- EC50 [2, 12]: 24.1 nM
- EC50 [2, 13]: 24.1 nM
- EC50 [3]: 561 nM
- EC50 [4]: 14.3 nM
- IC50 [5]: 5.9 nM
- C316Y/1a Fold Resistance [6]: 5 fold
- IC50 [7]: 28 nM
- EC50 [8]: 234 nM
- IC50 [9]: 12 nM
- EC50 [10, 14]: 405 nM
- EC50 [10, 15]: 10000 nM
- EC50 [10, 16]: 405 nM
- EC50 [10, 17]: 405 nM

SMILES: Cn1cnc2ccc(-c3ncc(CN(c4ccc5c(-c6ncc[nH]6)c(-c6ccccc6)oc5c4)S(C)(=O)=O)s3)cc21 [Example 30, N-[3-(1H-imidazol-2-yl)-2-phenyl-1-benzofuran-6-yl]-N-{[2-(1-methyl-1H-benzimidazol-6-yl)-1,3-thiazol-5-yl]methyl}methanesulfonamide]
- EC50 [1]: 150 nM
- EC50 [2, 11]: 1320 nM
- EC50 [2, 12]: 4 nM
- EC50 [2, 13]: 4 nM
- EC50 [3]: 109 nM
- EC50 [4]: 2.8 nM
- IC50 [5]: 5 nM
- C316Y/1a Fold Resistance [6]: 4 fold
- IC50 [7]: 19 nM
- EC50 [8]: 40.7 nM
- IC50 [9]: 12 nM
- EC50 [10, 14]: 108 nM
- EC50 [10, 15]: 10000 nM
- EC50 [10, 16]: 108 nM
- EC50 [10, 17]: 108 nM

SMILES: CS(=O)(=O)N(CCCOc1ccccc1)c1cc2oc(-c3ccc(F)cc3)c(-c3ncc[nH]3)c2cc1C1CC1 [Example 37, N-[5-cyclopropyl-2-(4-fluorophenyl)-3-(1H-imidazol-2-yl)-1-benzofuran-6-yl]-N-(3-phenoxypropyl)methanesulfonamide]
- EC50 [1]: 598 nM
- EC50 [2, 11]: 529 nM
- EC50 [2, 12]: 145 nM
- EC50 [2, 13]: 145 nM
- EC50 [3]: 751 nM
- EC50 [4]: 166 nM
- IC50 [5]: 5.5 nM
- C316Y/1a Fold Resistance [6]: 26 fold
- IC50 [7]: 144 nM
- EC50 [8]: 522 nM
- IC50 [9]: 24 nM
- EC50 [10, 14]: 348 nM
- EC50 [10, 15]: 1390 nM
- EC50 [10, 16]: 348 nM
- EC50 [10, 17]: 348 nM

SMILES: CS(=O)(=O)N(CC1CCOCC1)c1cc2oc(-c3ccc(F)cc3)c(-c3ncc[nH]3)c2cc1C1CC1 [Example 38, N-[5-cyclopropyl-2-(4-fluorophenyl)-3-(1H-imidazol-2-yl)-1-benzofuran-6-yl]-N-(tetrahydro-2H-pyran-4-ylmethyl)methanesulfonamide]
- EC50 [1]: 161 nM
- EC50 [2, 11]: 245 nM
- EC50 [2, 12]: 12.7 nM
- EC50 [2, 13]: 12.7 nM
- EC50 [3]: 81.4 nM
- EC50 [4]: 25.2 nM
- IC50 [5]: 5 nM
- C316Y/1a Fold Resistance [6]: 30 fold
- IC50 [7]: 148 nM
- EC50 [8]: 88.2 nM
- IC50 [9]: 33 nM
- EC50 [10, 14]: 10.2 nM
- EC50 [10, 15]: 117 nM
- EC50 [10, 16]: 10.2 nM
- EC50 [10, 17]: 10.2 nM

SMILES: CCCCN(c1cc2oc(-c3ccc(F)cc3)c(-c3ncc[nH]3)c2cc1C1CC1)S(C)(=O)=O [Example 39, N-butyl-N-[5-cyclopropyl-2-(4-fluorophenyl)-3-(1H-imidazol-2-yl)-1-benzofuran-6-yl]methanesulfonamide]
- EC50 [1]: 187 nM
- EC50 [2, 11]: 59 nM
- EC50 [2, 12]: 29.7 nM
- EC50 [2, 13]: 29.7 nM
- EC50 [3]: 133 nM
- EC50 [4]: 28.4 nM
- IC50 [5]: 5 nM
- C316Y/1a Fold Resistance [6]: 16 fold
- IC50 [7]: 78 nM
- EC50 [8]: 105 nM
- IC50 [9]: 17 nM
- EC50 [10, 14]: 33.1 nM
- EC50 [10, 15]: 132 nM
- EC50 [10, 16]: 33.1 nM
- EC50 [10, 17]: 33.1 nM

SMILES: CS(=O)(=O)N(CCCC(F)(F)F)c1cc2oc(-c3ccc(F)cc3)c(-c3ncc[nH]3)c2cc1C1CC1 [Example 44, N-[5-cyclopropyl-2-(4-fluorophenyl)-3-(1H-imidazol-2-yl)-1-benzofuran-6-yl]-N-(4,4,4-trifluorobutyl)methanesulfonamide]
- EC50 [1]: 176 nM
- EC50 [2, 11]: 81 nM
- EC50 [2, 12]: 16.1 nM
- EC50 [2, 13]: 16.1 nM
- EC50 [3]: 97.7 nM
- EC50 [4]: 15.1 nM
- IC50 [5]: 5 nM
- C316Y/1a Fold Resistance [6]: 21 fold
- IC50 [7]: 105 nM
- EC50 [8]: 93.7 nM
- IC50 [9]: 19 nM
- EC50 [10, 14]: 23.7 nM
- EC50 [10, 15]: 420 nM
- EC50 [10, 16]: 23.7 nM
- EC50 [10, 17]: 23.7 nM

SMILES: CC(=O)OCCCCCN(c1cc2oc(-c3ccc(F)cc3)c(-c3ncc[nH]3)c2cc1C1CC1)S(C)(=O)=O [Example 46, 5-{[5-cyclopropyl-2-(4-fluorophenyl)-3-(1H-imidazol-2-yl)-1-benzofuran-6-yl](methylsulfonyl)amino}pentyl acetate]
- EC50 [1]: 31.1 nM
- EC50 [2, 11]: 36 nM
- EC50 [2, 12]: 4.7 nM
- EC50 [2, 13]: 4.6 nM
- EC50 [3]: 23.7 nM
- EC50 [4]: 2.7 nM
- IC50 [5]: 4.5 nM
- C316Y/1a Fold Resistance [6]: 22 fold
- IC50 [7]: 98 nM
- EC50 [8]: 27.5 nM
- IC50 [9]: 11 nM
- EC50 [10, 14]: 4.5 nM
- EC50 [10, 15]: 112 nM
- EC50 [10, 16]: 4.5 nM
- EC50 [10, 17]: 4.5 nM
